Our source for the Ki values is patent US9469615B2, “Quinoxalines and AZA-quinoxalines as CRTH2 receptor modulators” (Merck Sharp & Dohme Corp., priority 2010, dated 2016).

A word on the Ki: it is the dissociation constant of the complex between target and ligand, obtained from inhibition or displacement. Low values mean a stronger hold on the target, high ones a looser hold on the target.

The experiment deals with T1, hCRTH2 (Homo sapiens, UniProt Q9Y5Y4).
T1 construct: expressed in transfected cells; host or cells: HEK (human embryonic kidney) cells expressing hCRTH2; membrane preparation
T1 sequence (Q9Y5Y4 1-395): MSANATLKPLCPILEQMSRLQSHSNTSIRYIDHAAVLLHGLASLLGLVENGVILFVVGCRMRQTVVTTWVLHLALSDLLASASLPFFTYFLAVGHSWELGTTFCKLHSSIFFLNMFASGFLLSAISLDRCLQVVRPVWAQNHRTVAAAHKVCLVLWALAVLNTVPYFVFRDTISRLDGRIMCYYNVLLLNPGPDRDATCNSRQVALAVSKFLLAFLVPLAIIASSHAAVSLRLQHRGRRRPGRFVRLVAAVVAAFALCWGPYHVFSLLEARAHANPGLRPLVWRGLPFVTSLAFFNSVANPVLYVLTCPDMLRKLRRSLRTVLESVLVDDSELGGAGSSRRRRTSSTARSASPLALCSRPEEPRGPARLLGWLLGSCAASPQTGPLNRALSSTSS
Description: Radioligand binding assay ([3H]PGD2 competition, HEK-hCRTH2 membranes). The gist of the method:
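Membranes (8-20 μg protein) from HEK-hCRTH2 cells were incubated 60 min at room temperature with 3.0 nM [3H]PGD2 in 50 mM Tris-HCl pH 7.4, 1 mM EDTA, 2 mM MnCl2, 1% DMSO. Non-specific binding defined with 10 μM PGD2. Bound radioactivity counted after filtration.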

[1] abbreviates: [3H]PGD2 binding, rated A-E (Table A).

Compound `O=C(O)CCCCc1nc2cc(C(=O)N3CCN(c4ccccn4)CC3)ccc2nc1-c1ccc(F)cc1` [compound 357, 5-(3-(4-fluorophenyl)-7-(4-(pyridin-2-yl)piperazine-1-carbonyl)quinoxalin-2-yl)pentanoic acid] came in with a Ki ([3H]PGD2 competition, Table B) of 2.1 to 20 nM.

As to `C[C@H](CCCc1nc2cc(C(=O)N[C@@H]3CCCc4ccccc43)ccc2nc1-c1ccc(F)cc1)C(=O)O` [compound 477, (R)-5-(3-(4-fluorophenyl)-7-(((R)-1,2,3,4-tetrahydronaphthalen-1-yl)carbamoyl)quinoxalin-2-yl)-2-methylpentanoic acid], the Ki ([3H]PGD2 competition, Table B) fell in the range of 2.1 to 20 nM. Turning to `O=C(O)CCCCc1nc2cc(C(=O)N3CC(c4ccccc4)C3)ccc2nc1-c1ccc(F)cc1` [compound 173, 3-(4-fluorophenyl)--7-[(3-phenyl-1-azetidinyl)carbonyl]-2-quinoxalinepentanoic acid], the Ki reads like this: under setting [1], 0.1 to 2 nM; ([3H]PGD2 binding, values in text) 1.6 nM. For `CC(CCCc1nc2cc(C(=O)NCc3ccc(C#N)cc3)ccc2nc1-c1ccc(Cl)cc1)C(=O)O` (stereo not drawn) [compound 164, 3-(4-chlorophenyl)-7-[[[(4-cyanophenyl)methyl]amino]carbonyl]-alpha-methyl-2-quinoxalinepentanoic acid], the Ki under setting [1] was in the range of 2.1 to 20 nM. With `C[C@H](NC(=O)c1ccc2nc(-c3ccc(F)cc3)c(CCCCC(=O)O)nc2c1)c1ccc2ccccc2c1` [compound 535, (S)-5-(3-(4-fluorophenyl)-7-((1-(naphthalen-2-yl)ethyl)carbamoyl)quinoxalin-2-yl)pentanoic acid], the Ki ([3H]PGD2 competition, Table B) was in the range of 2.1 to 20 nM. In the case of `C[C@@H](NC(=O)c1ccc2nc(-c3ccc(C(F)(F)F)cc3)c(CCCCC(=O)O)nc2c1)c1cccc(-c2ccccc2)c1` [4D, 7-[[[1-(R)-[1,1′-biphenyl]-3-ylethyl]amino]carbonyl]-3-[4-(trifluoromethyl)-phenyl]-2-quinoxaline-pentanoic acid], under setting [1], the Ki lay within 20.1 to 200 nM.

With `C[C@@H](NC(=O)c1ccc2nc(-c3ccc(Cl)cc3)c(CCc3cc(F)cc(CC(=O)O)c3)nc2c1)c1ccc(F)cc1` [compound 449], the Ki ([3H]PGD2 competition, Table B) lay in the range of 2.1 to 20 nM. Compound `O=C(O)CCCCc1nc2cc(C(=O)NCc3ccccn3)ccc2nc1-c1ccc(C(F)(F)F)cc1` [3AE, 7-[[(2-pyridinylmethyl)-amino]carbonyl]-3-[4-(trifluoromethyl)phenyl]-2-quinoxalinepentanoic acid] returned an inhibition constant (Ki) under setting [1] of 2.1 to 20 nM. In turn, `O=C(O)CCCCc1nc2cc(C(=O)NC3CCOc4c(F)cc(F)cc43)ccc2nc1-c1ccc(Cl)cc1` (centres unmarked) [compound 694, 5-(3-(4-chlorophenyl)-7-((6,8-difluorochroman-4-yl)carbamoyl)quinoxalin-2-yl)pentanoic acid] gave a Ki ([3H]PGD2 competition, Table B) of 2.1 to 20 nM. Under “[3H]PGD2 competition, Table B”, `O=C(O)CCCCc1nc2cc(C(=O)N[C@H]3COc4ccccc43)ccc2nc1-c1ccc(Cl)cc1` [compound 580, (R)-5-(3-(4-chlorophenyl)-7-((2,3-dihydrobenzofuran-3-yl)carbamoyl)quinoxalin-2-yl)pentanoic acid] gave a Ki of 0.1 to 2 nM. For `CC(CCCc1nc2cc(C(=O)N[C@H](C)c3ccc(F)cc3)ccc2nc1-c1ccc(Cl)cc1)C(=O)O` (stereo partly drawn) [compound 409, 5-(3-(4-chlorophenyl)-7-(((R)-1-(4-fluorophenyl)ethyl)carbamoyl)quinoxalin-2-yl)-2-methylpentanoic acid], for the setting “[3H]PGD2 competition, Table B”, the Ki is 20.1 to 200 nM. In the case of `O=C(O)CCCCc1nc2cc(C(=O)N3CC=C(c4ccccc4)CC3)ccc2nc1-c1ccc(F)cc1` [compound 127, 5-(3-(4-fluorophenyl)-7-(4-phenyl-1,2,3,6-tetrahydropyridine-1-carbonyl)quinoxalin-2-yl)pentanoic acid], the Ki under setting [1] fell in the range of 2.1 to 20 nM. With `N#Cc1ccc(N2CCN(C(=O)c3ccc4nc(-c5ccc(Cl)cc5)c(CCCCC(=O)O)nc4c3)CC2)cc1` [compound 623, 5-(3-(4-chlorophenyl)-7-(4-(4-cyanophenyl)piperazine-1-carbonyl)quinoxalin-2-yl)pentanoic acid], under “[3H]PGD2 competition, Table B”, the Ki was 2.1 to 20 nM. In turn, `O=C(O)CCCCc1nc2cc(C(=O)N3CC(c4cccc(Cl)c4)C3)ccc2nc1-c1ccccc1` [compound 253, 7-[[3-(3-chlorophenyl)-1-azetidinyl]carbonyl]-3-phenyl-2-quinoxalinepentanoic acid] came in with a Ki under setting [1] of 0.1 to 2 nM. The same measure, in the same setting: then `O=C(O)CCCCc1nc2cc(C(=O)N3CCC(c4ccccc4)CC3)ccc2nc1-c1cncc(Cl)c1` [26R, 3-(5-chloro-3-pyridinyl)-7-[(4-phenyl-1-piperidinyl)carbonyl]-2-quinoxalinepentanoic acid], with 20.1 to 200 nM; and `O=C(O)CCCCc1nc2cc(C(=O)NCc3cccc(Cl)c3)ccc2nc1-c1ccccc1` [15U, 5-{7-[(3-chlorobenzyl)carbamoyl]-3-phenylquinoxalin-2-yl}pentanoic acid], with 2.1 to 20 nM.

`O=C(O)CCCCc1nc2cc(C(=O)N3CCNC(Cc4ccccc4)C3)ccc2nc1-c1ccccc1` (centres unmarked) [15K, 5-{7-[(3-benzylpiperazin-1-yl)carbonyl]-3-phenyl-quinoxalin-2-yl}pentanoic acid] gave a Ki under setting [1] of 2.1 to 20 nM. The compound `C[C@@H](CCCc1nc2cc(C(=O)N[C@@H]3CCCc4cc(F)ccc43)ccc2nc1-c1ccc(F)cc1)C(=O)O` [compound 518, (S)-5-(7-(((R)-6-fluoro-1,2,3,4-tetrahydronaphthalen-1-yl)carbamoyl)-3-(4-fluorophenyl)quinoxalin-2-yl)-2-methylpentanoic acid] had a Ki ([3H]PGD2 competition, Table B) of 2.1 to 20 nM. Where the note is “[3H]PGD2 competition, Table B”, `C[C@@H](NC(=O)c1ccc2nc(-c3ccc(Cl)cc3)c(CCCCC(=O)O)nc2c1)c1cccc2ccccc12` [compound 493, (R)-5-(3-(4-chlorophenyl)-7-((1-(naphthalen-1-yl)ethyl)carbamoyl)quinoxalin-2-yl)pentanoic acid] registered an inhibition constant Ki of 2.1 to 20 nM. As for `O=C(O)CCCCc1nc2cc(C(=O)N[C@@H]3CCOc4ccccc43)ccc2nc1-c1ccc(Cl)cc1` [compound 506], under “[3H]PGD2 competition, Table B”, the Ki lay within 0.1 to 2 nM.

Consider `O=C(O)CCCCc1nc2cc(C(=O)NCc3ccc(OC(F)(F)F)cc3)ccc2nc1-c1ccccc1` [15AV, 5-(3-phenyl-7-{[4-(trifluoromethoxy)benzyl]carbamoyl}quinoxalin-2-yl)pentanoic acid], for which, under setting [1], the Ki was in the range of 0.1 to 2 nM. `O=C(N[C@@H]1CCCc2ccccc21)c1ccc2nc(-c3ccc(F)cc3)c(CC[C@H]3C[C@@H]3C(=O)O)nc2c1` [compound 262, (1S,2S)-2-(2-(3-(4-fluorophenyl)-7-(((R)-1,2,3,4-tetrahydronaphthalen-1-yl)carbamoyl)quinoxalin-2-yl)ethyl)cyclopropanecarboxylic acid]: for the setting “[3H]PGD2 competition, Table B”, the Ki was in the range of 2.1 to 20 nM. On to `O=C(O)CCCCc1nc2cc(C(=O)N3CCn4ccnc4C3)ccc2nc1-c1ccc(Cl)cc1` [compound 705, 5-(3-(4-chlorophenyl)-7-(5,6,7,8-tetrahydroimidazo[1,2-a]pyrazine-7-carbonyl)quinoxalin-2-yl)pentanoic acid], for which, under “[3H]PGD2 competition, Table B”, the inhibitory constant (Ki) is 201 to 700 nM. Under setting [1], `N#Cc1ccc(CNC(=O)c2ccc3nc(-c4ccc(F)cc4)c(CCc4cccc(CC(=O)O)c4)nc3c2)cc1` [compound 194] displayed a Ki of 20.1 to 200 nM. `O=C(O)CCCCc1nc2cc(C(=O)N3CCN(c4ccccc4Cl)CC3)ccc2nc1-c1ccccc1` [compound 308, 5-(7-(4-(2-chlorophenyl)piperazine-1-carbonyl)-3-phenylquinoxalin-2-yl)pentanoic acid] had an inhibitory constant (Ki) ([3H]PGD2 competition, Table B) of 2.1 to 20 nM. For the compound `CC(CCCc1nc2cc(C(=O)N[C@H](C)c3ccc(F)cc3)ccc2nc1-c1ccc(Cl)cc1)C(=O)O` (stereo partly drawn) [compound 166, 3(4-chlorophenyl)-7-[[[1(R)-(4-fluorophenyl)ethyl]amino]carbonyl]-alpha-methyl-2-quinoxalinepentanoic acid], the Ki under setting [1] is 2.1 to 20 nM. Consider `COc1ccc(C2CCN(C(=O)c3ccc4nc(-c5ccccc5)c(CCCCC(=O)O)nc4c3)C2)cc1` (centres unmarked) [15N, 5-(7-{[3-(4-methoxy-phenyl)pyrrolidin-1-yl]-carbonyl}-3-phenyl-quinoxalin-2-yl) pentanoic acid], for which the Ki under setting [1] was in the range of 2.1 to 20 nM.

For the compound `C[C@H](NC(=O)c1ccc2nc(-c3ccc(Cl)cc3)c(CCCCC(=O)O)nc2c1)c1ccc(F)cc1` [16T, 3-(4-chlorophenyl)-7-[[[1(S)-(4-fluorophenyl)ethyl]amino]carbonyl]-2-quinoxalinepentanoic acid], the Ki under setting [1] is 0.1 to 2 nM. Regarding `O=C(O)CCCCc1nc2cc(C(=O)N[C@@H]3CCCc4ccccc43)c(F)cc2nc1-c1ccc(Cl)cc1` [compound 718, (R)-5-(3-(4-chlorophenyl)-6-fluoro-7-((1,2,3,4-tetrahydronaphthalen-1-yl)carbamoyl)quinoxalin-2-yl)pentanoic acid], the Ki ([3H]PGD2 competition, Table B) was 2.1 to 20 nM.

Compound `Cc1ccc(CNC(=O)c2ccc3nc(-c4ccc(Cl)cc4)c(CCCCC(=O)O)nc3c2)cc1` [16AQ, 3-(4-chlorophenyl)-7-[[[(4-methylphenyl)methyl]amino]carbonyl]-2-quinoxalinepentanoic acid] gave a Ki under setting [1] of 0.1 to 2 nM. `O=C(O)CCCCc1nc2cc(C(=O)N3CCO[C@H](c4ccc(F)cc4)C3)ccc2nc1-c1ccc(Cl)cc1` [compound 614, (R)-5-(3-(4-chlorophenyl)-7-(2-(4-fluorophenyl)morpholine-4-carbonyl)quinoxalin-2-yl)pentanoic acid] registered a Ki ([3H]PGD2 competition, Table B) of 2.1 to 20 nM.
